Values quoted from earlier work, collected in US8691571B1, “Extending tissue preservation” (University of South Florida, priority 1998, dated 2014).

Test system: rabbit cornea
Settings: addition to storage medium; without changing metabolic activity for at least 11 days

## CC(O)CC(=O)O (stereo not drawn) [beta-hydroxy butyrate]
  diminished lactic acid concentration of rabbit cornea: 85%
